Measurements published in ChEMBL document CHEMBL1149804, “Bioactivity of novel transition metal complexes of N'-[(4-methoxy)thiobenzoyl]benzoic acid hydrazide” (Eur J Med Chem, 2008).

Columns and labels:
HT-29 = assay: Antiproliferative activity against human HT29 cells after 48 hrs by MTT assay; type: functional, cell-based; conditions: HT-29, 48 h
[1] = Inhibition of human recombinant N-myristoyltransferase

COc1ccc(C(=S)NNC(=O)c2ccccc2)cc1
IC50 (HT-29): 90.9 µM
IC50 [1]: 3200 µM
